Measured values as given in patent US20220380374A1, “1,4-DIHYDROBENZO[D]PYRAZOLO[3,4-F][1,3]DIAZEPINE DERIVATIVES AND RELATED COMPOUNDS AS LRRK2, NUAK1 AND/OR TYK2 KINASE MODULATORS FOR THE TREATMENT OF E.G. AUTOIMMUNE DISEASE” (Origenis GMBH, priority 2019, published 2022).

Key:
[1] = target: T1, wt human TYK2, catalytic site (Homo sapiens, UniProt P29597); assay: HTRF KinEASE assay, TYK2; type: biochemical; conditions: 1 μM ATP; read-out: IC50, inhibitory activity toward TYK2
T1 construct: 2 nM wt human TYK2, catalytic site (SignalChem/CAN); purchased SignalChem/CAN
T1 sequence (P29597 897-1176 limits assumed): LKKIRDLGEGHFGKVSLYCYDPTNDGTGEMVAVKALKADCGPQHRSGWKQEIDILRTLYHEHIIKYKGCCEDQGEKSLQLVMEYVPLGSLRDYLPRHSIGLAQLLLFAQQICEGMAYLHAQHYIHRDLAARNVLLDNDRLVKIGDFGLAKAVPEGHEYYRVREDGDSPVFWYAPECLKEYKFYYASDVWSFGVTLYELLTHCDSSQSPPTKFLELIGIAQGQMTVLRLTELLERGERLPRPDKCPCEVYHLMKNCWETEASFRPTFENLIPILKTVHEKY
Description: Basic protocol for HTRF KinEASE assay (Cisbio/FRA) inhibitor studies involved two steps: Enzymatic step: Addition of 4 μl of test compound in corresponding DMSO dilutions, 4 μl of kinase/substrate mixture, 2 μl of ATP into 384 well small volume plates. Incubation for at least 30 minutes at room temperature.
Detection step: Addition of 5 μl antibody and 5 μl streptavidin-XL665, read plate after 60 minutes. Data analysis of emission ratios according to KinEASE assay protocol.
Kinase and assay components were adjusted to final concentrations according to the kit protocol. For TYK2: 2 nM wt human TYK2, catalytic site (SignalChem/CAN), 1 μM HTRF KinEASE-TK Substrate-biotin, 1 μM ATP in 1× Kinase Buffer

[2] = target: T2, wt human NUAK1, full length (Homo sapiens, UniProt O60285); assay: TR-FRET LanthaScreen Eu Kinase Binding Assay, NUAK1; conditions: 5 nM Kinase Tracer 236; read-out: IC50, inhibitory activity toward NUAK1
T2 construct: 8 nM wt human NUAK1, full length (ThermoFisher/USA); purchased ThermoFisher/USA
T2 sequence (O60285 1-661): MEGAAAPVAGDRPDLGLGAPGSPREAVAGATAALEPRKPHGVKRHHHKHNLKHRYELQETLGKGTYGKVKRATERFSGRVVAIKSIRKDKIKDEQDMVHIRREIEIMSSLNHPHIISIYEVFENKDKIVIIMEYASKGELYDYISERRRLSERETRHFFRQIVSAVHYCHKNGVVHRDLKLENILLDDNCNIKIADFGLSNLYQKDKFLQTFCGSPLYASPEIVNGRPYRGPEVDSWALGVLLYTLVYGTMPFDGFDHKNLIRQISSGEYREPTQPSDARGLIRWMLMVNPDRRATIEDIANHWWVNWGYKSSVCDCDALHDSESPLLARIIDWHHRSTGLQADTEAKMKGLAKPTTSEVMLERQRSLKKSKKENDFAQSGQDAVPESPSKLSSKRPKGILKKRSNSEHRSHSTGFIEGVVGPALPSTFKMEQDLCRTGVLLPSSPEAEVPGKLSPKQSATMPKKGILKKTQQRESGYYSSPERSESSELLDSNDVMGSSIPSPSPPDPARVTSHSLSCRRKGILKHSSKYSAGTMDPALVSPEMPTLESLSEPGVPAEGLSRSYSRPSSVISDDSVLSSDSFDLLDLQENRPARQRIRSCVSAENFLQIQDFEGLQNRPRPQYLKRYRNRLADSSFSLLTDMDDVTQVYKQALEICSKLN
Description: The basic protocol for TR-FRET LanthaScreen Eu Kinase Binding Assay inhibitor studies were performed as follows. LanthaScreen Kinase Binding Assays (ThermoFisher/USA) to evaluate inhibitors were performed by addition of 5 μl of test compound in corresponding DMSO dilutions/5 μl of kinase/antibody mixture, 5 μl of tracer into 384 well small volume plates. After incubation for 1 hour at room temperature, plates were read. Data analysis of emission ratios was according to LanthaScreen Eu Kinase Binding Assay protocol.
Kinase and assay components were adjusted to final concentrations according to the kit protocol. For LRRK2: 5 nM wt human LRRK2, catalytic site, or G2019S human LRRK2, catalytic site (ThermoFisher/USA), 2 nM Eu-Anti-GST Antibody, 10 nM Kinase Tracer 236 in 1× Kinase Buffer A. For NUAK1: 8 nM wt human NUAK1, full length (ThermoFisher/USA), 2 nM Eu-Anti-His Antibody, 5 nM Kinase Tracer 236 in 1× Kinase Buffer A.

| SMILES | IC50 [1] [nM] | IC50 [2] [nM] |
| --- | --- | --- |
| Fc1cc2c(cc1-c1ccnnc1)N=C(c1c(Cl)cccc1Cl)Nc1c[nH]nc1-2 [Compound 229, 5-(2,6-dichlorophenyl)-9-fluoro-8-(pyridazin-4-yl)-2,4-dihydrobenzo[d]pyrazolo[3,4-f][1,3]diazepine] | < 10 | 100 to 1000 |
| CCC(C)Oc1cc2c(cc1F)-c1n[nH]cc1N=C(c1c(F)cccc1Cl)N2 (stereo not shown) [Compound 239, 8-(sec-butoxy)-5-(2-chloro-6-fluorophenyl)-9-fluoro-2,6-dihydrobenzo[d]pyrazolo[3,4-f][1,3]diazepine] | 10 to 100 | 100 to 1000 |
| Fc1ccc(F)c(C2=Nc3ccccc3-c3[nH]ncc3N2)c1F [Compound 32, 5-(2,3,6-trifluorophenyl)-1,4-dihydrobenzo[d]pyrazolo[3,4-f][1,3]diazepine] | 100 to 1000 | 100 to 1000 |
| Fc1cc(F)c(C2=Nc3ccc(Cl)cc3-c3n[nH]cc3N2)c(F)c1 [Compound 194, 9-chloro-5-(2,4,6-trifluorophenyl)-2,4-dihydrobenzo[d]pyrazolo[3,4-f][1,3]diazepine] | 100 to 1000 | 10 to 100 |
| Fc1ccccc1-c1ccc2c(c1)N=C(c1c(F)cccc1Cl)Nc1c[nH]nc1-2 [Compound 234, 5-(2-chloro-6-fluorophenyl)-8-(2-fluorophenyl)-2,4-dihydrobenzo[d]pyrazolo[3,4-f][1,3]diazepine] | 10 to 100 | < 10 |
| Fc1ccccc1-c1ccc2c(c1)N=C(c1c(Cl)cccc1Cl)Nc1c[nH]nc1-2 [Compound 236, 5-(2,6-dichlorophenyl)-8-(2-fluorophenyl)-2,4-dihydrobenzo[d]pyrazolo[3,4-f][1,3]diazepine] | < 10 | 100 to 1000 |
| Cc1ccc2c(c1)-c1[nH]ncc1NC(c1c(Cl)ccc(Br)c1F)=N2 [Compound 184, 5-(3-bromo-6-chloro-2-fluorophenyl)-9-methyl-1,4-dihydrobenzo [d]pyrazolo[3,4-f][1,3]diazepine] | 100 to 1000 | 10 to 100 |
| Fc1cccc(-c2ccc3c(c2)N=C(c2c(F)cccc2F)Nc2c[nH]nc2-3)c1 [Compound 240, 5-(2,6-difluorophenyl)-8-(3-fluorophenyl)-2,4-dihydrobenzo[d]pyrazolo[3,4-f][1,3]diazepine] | 10 to 100 | 10 to 100 |
| O=C(NC1CCOCC1)c1ccc2c(c1)N=C(c1c(F)cccc1F)Nc1cn[nH]c1-2 [Compound 95, 5-(2,6-difluorophenyl)-N-(tetrahydro-2H-pyran-4-yl)-1,4-dihydrobenzo[d]pyrazolo[3,4-f][1,3]diazepine-8-carboxamide] | < 10 | 10 to 100 |
| Fc1cccc(F)c1C1=Nc2cn[nH]c2-c2cn[nH]c2N1 [Compound 72, 5-(2,6-difluorophenyl)-6,7-dihydro-1H-dipyrazolo[3,4-d:3′,4′-f][1,3]diazepine] | 10 to 100 | 10 to 100 |
| CC[C@H](C)Oc1cc2c(cc1F)-c1n[nH]cc1N=C(c1c(F)cccc1Cl)N2 [Compound 247, (S)-8-(sec-butoxy)-5-(2-chloro-6-fluorophenyl)-9-fluoro-2,6-dihydrobenzo[d]pyrazolo[3,4-f][1,3]diazepine] | 10 to 100 | 10 to 100 |
| Fc1cccc(Cl)c1C1=Nc2cc(-c3ccn[nH]3)ccc2-c2[nH]ncc2N1 [Compound 160, 5-(2-chloro-6-fluorophenyl)-8-(1H-pyrazol-5-yl)-1,4-dihydrobenzo[d]pyrazolo[3,4-f][1,3]diazepine] | 10 to 100 | 10 to 100 |
| Cc1cc2c(cc1C(=O)NC1CCOCC1)N=C(c1c(F)cccc1F)Nc1cn[nH]c1-2 [Compound 157, 5-(2,6-difluorophenyl)-9-methyl-N-(tetrahydro-2H-pyran-4-yl)-1,4-dihydrobenzo[d]pyrazolo[3,4-f][1,3]diazepine-8-carboxamide] | < 10 | 100 to 1000 |
| FC(F)Oc1ccc2c(c1)-c1[nH]ncc1N=C(c1c(Cl)cccc1Cl)N2 [Compound 90, 5-(2,6-dichlorophenyl)-9-(difluoromethoxy)-1,6-dihydrobenzo[d]pyrazolo[3,4-f][1,3]diazepine] | 100 to 1000 | 100 to 1000 |
| Fc1cc2c(cc1-c1cccnn1)N=C(c1c(Cl)cccc1Cl)Nc1c[nH]nc1-2 [Compound 227, 5-(2,6-dichlorophenyl)-9-fluoro-8-(pyridazin-3-yl)-2,4-dihydrobenzo[d]pyrazolo[3,4-f][1,3]diazepine] | 10 to 100 | 100 to 1000 |
| Fc1cccc(-c2ccc3c(c2)N=C(c2c(Cl)cccc2Cl)Nc2c[nH]nc2-3)c1 [Compound 243, 5-(2,6-dichlorophenyl)-8-(3-fluorophenyl)-2,4-dihydrobenzo[d]pyrazolo[3,4-f][1,3]diazepine] | 10 to 100 | 100 to 1000 |
| Cc1ccc2c(c1)-c1[nH]ncc1N=C(c1c(F)cc(NCCF)cc1F)N2 [Compound 126, 3,5-difluoro-N-(2-fluoroethyl)-4-(9-methyl-1,6-dihydrobenzo[d]pyrazolo[3,4-f][1,3]diazepin-5-yl)aniline] | 100 to 1000 | 10 to 100 |
| Fc1cccc(F)c1C1=Nc2cc(-c3ccn[nH]3)ccc2-c2[nH]ncc2N1 [Compound 159, 5-(2,6-difluorophenyl)-8-(1H-pyrazol-5-yl)-1,4-dihydrobenzo[d]pyrazolo[3,4-f][1,3]diazepine] | 10 to 100 | 10 to 100 |
| Fc1ccccc1-c1ccc2c(c1)N=C(c1c(F)cccc1F)Nc1c[nH]nc1-2 [Compound 233, 5-(2,6-difluorophenyl)-8-(2-fluorophenyl)-2,4-dihydrobenzo[d]pyrazolo[3,4-f][1,3]diazepine] | 10 to 100 | 10 to 100 |
| Cc1ccc2c(c1)-c1[nH]ncc1NC(c1c(F)cccc1I)=N2 [Compound 163, 5-(2-fluoro-6-iodophenyl)-9-methyl-1,4-dihydrobenzo[d]pyrazolo[3,4-f][1,3]diazepine] | 100 to 1000 | 100 to 1000 |
| Fc1cccc(F)c1C1=Nc2cn[nH]c2-c2cc(Cl)ncc2N1 [Compound 147, 9-chloro-5-(2,6-difluorophenyl)-1,6-dihydropyrazolo[4,3-d]pyrido[4,3-f][1,3]diazepine] | 10 to 100 | 10 to 100 |
| CN1CCN(c2ncc3c(n2)N=C(c2c(F)cccc2F)Nc2c[nH]nc2-3)CC1 [Compound 219] | 10 to 100 | 100 to 1000 |
| Nc1ccc2c(c1)-c1[nH]ncc1N=C(c1c(F)cccc1F)N2 [Compound 103, 5-(2,6-difluorophenyl)-1,6-dihydrobenzo[d]pyrazolo[3,4-f][1,3]diazepin-9-amine] | 100 to 1000 | 10 to 100 |
| Fc1ccc2c(c1)-c1[nH]ncc1N=C(c1c(F)cc(OC(F)F)cc1F)N2 [Compound 215, 5-(4-(difluoromethoxy)-2,6-difluorophenyl)-9-fluoro-1,6-dihydrobenzo[d]pyrazolo[3,4-f][1,3]diazepine] | 100 to 1000 | 10 to 100 |
| Cc1n[nH]c2c1NC(c1c(F)cccc1F)=Nc1ccccc1-2 [Compound 76, 5-(2,6-difluorophenyl)-3-methyl-1,4-dihydrobenzo[d]pyrazolo[3,4-f][1,3]diazepine] | 10 to 100 | 10 to 100 |
| Fc1ccc(-c2ccc3c(c2)N=C(c2c(Cl)cccc2Cl)Nc2c[nH]nc2-3)cc1 [Compound 242, 5-(2,6-dichlorophenyl)-8-(4-fluorophenyl)-2,4-dihydrobenzo[d]pyrazolo[3,4-f][1,3]diazepine] | < 10 | 10 to 100 |
